A short description of data set [1]: Bioavailability study: plasma levels in dogs. Type of data set: in vivo. Particulars: 4 mg/kg, PEG vehicle, plasma levels over a 10 hour period, amorphous vs crystalline form. On the procedure:
The extent and rate of absorption of the crystalline and amorphous forms of raloxifene HCl was determined. The two forms of the compound were formulated in a PEG vehicle as follows: […]
Six dogs were dosed as follows: three dogs received the amorphous form, while three dogs received the crystalline form, both at a dose of 4 mg/kg. Plasma levels of the two compound forms were then determined over a 10 hour period.

For data set [2] the following is noted: for Solubility: in water, room temperature, hydrochloride.
For data set [3] the following is noted: long term studies; birefringence under polarized light microscope.
Description: The presence of the amorphous form of a compound of formula I was determined by observing the material under a polarized light microscope, and determining if the material was birefringent. If no birefringence was observed, the material was considered to be amorphous.
The amorphous material was also made as a complex with povidone, with ratios of raloxifene HCl to PVP as follows: 9:1, 3:1, and 1:1 (w/w). Complexes with hydroxypropyl-β-cyclodextrin (HPBCD) were also prepared, with a ratio of raloxifene HCl to HPBCD of from 1:1 to 1:4 (w/w).
The nature of the next data set: physchem. Particulars: water, 37 °C, thermodynamic from solid, in water, in sonicator.

Counter-ions that a name gives are not always drawn. Like-named read-outs stand apart in the source and are kept apart here.

In the case of `O=C(c1ccc(OCCN2CCCCC2)cc1)c1c(-c2ccc(O)cc2)sc2cc(O)ccc12` [amorphous, raloxifene hydrochloride], the “Bioavailability (plasma levels)” value in data set [1] is “greater bioavailability”. In data set [2] (amorphous vs crystalline form), the “Solubility of the amorphous form relative to the crystalline form” value was “approximately 250 times”. For the same molecule, the Solubility in data set [2] stood at 42.2 mg/mL; in “physchem”, 120 mg/mL. In addition, the “Stability of the amorphous form” value in data set [3] is reported as “very stable”.

On to `O=C(c1ccc(OCCN2CCCCC2)cc1)c1c(-c2ccc(O)cc2)sc2cc(O)ccc12` [crystalline, raloxifene hydrochloride, reference compound], for which, in data set [2], the Solubility worked out at 0.08 mg/mL.
